System: MV4-11 cells
Test: Cell proliferation assay MV4;11 (CellTiter-Glo, 72 hours)
Format: cell-based
Details: Homo sapiens; MV4;11 leukemia cell line, 72 hours; read-out: MV4; 11 IC50
How it was run: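 MV4-11 cells (MLL1-AF4 fusion) exposed 72 h at 37 °C to 8 compound concentrations, final 0.632–2000 nM. Viability by CellTiter-Glo luminescence as % of vehicle RLU; % max inhibition = 100 − viability at top concentration.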

Compound	IC50 [nM]
CC(C)N(C(=O)c1cc(F)ccc1Oc1cncnc1N1CC2(CCN(C[C@@H]3CC[C@@H](NS(=O)(=O)N4CCC4)CO3)CC2)C1)C1CC(F)(F)C1 [Example 118, 2-((4-(7-(((2S,5R)-5-(Azetidine-1-sulfonamido)tetrahydro-2H-pyran-2-yl)methyl)-2,7-diazaspiro[3.5]nonan-2-yl)pyrimidin-5-yl)oxy)-N-(3,3-difluorocyclobutyl)-5-fluoro-N-isopropylbenzamide]	< 100
CC(C)N(C(=O)c1cc(F)ccc1Oc1cncnc1N1CC2(CCN(C[C@@H]3CC[C@@H](NS(=O)(=O)N(C)C(C)C)CO3)CC2)C1)C1CC(F)(F)C1 [Example 119, N-(3,3-Difluorocyclobutyl)-5-fluoro-N-isopropyl-2-((4-(7-(((2S,5R)-5-((N-isopropyl-N-methylsulfamoyl)amino)tetrahydro-2H-pyran-2-yl)methyl)-2,7-diazaspiro[3.5]nonan-2-yl)pyrimidin-5-yl)oxy)benzamide]	< 100
C[C@@H]1COC[C@@H](C)N1C(=O)c1cc(F)ccc1Oc1cncnc1N1CC2(CCN(C[C@@H]3CC[C@@H](NS(=O)(=O)c4ccccc4)CO3)CC2)C1 [Example 120, N-((3R,6S)-6-((2-(5-(2-((3R,5R)-3,5-Dimethylmorpholine-4-carbonyl)-4-fluorophenoxy)pyrimidin-4-yl)-2,7-diazaspiro[3.5]nonan-7-yl)methyl)tetrahydro-2H-pyran-3-yl)benzenesulfonamide]	< 100
C[C@@H]1COC[C@@H](C)N1C(=O)c1cc(F)ccc1Oc1cncnc1N1CC2(CCN(C[C@@H]3CC[C@@H](NS(=O)(=O)N4CCC4)CO3)CC2)C1 [Example 121, N-((3R,6S)-6-((2-(5-(2-((3R,5R)-3,5-Dimethylmorpholine-4-carbonyl)-4-fluorophenoxy)pyrimidin-4-yl)-2,7-diazaspiro[3.5]nonan-7-yl)methyl)tetrahydro-2H-pyran-3-yl)azetidine-1-sulfonamide]	< 100
Cc1nc(S(=O)(=O)N[C@@H]2CC[C@@H](CN3CCC4(CC3)CN(c3ncncc3Oc3ccc(F)cc3C(=O)N3[C@H](C)COC[C@H]3C)C4)OC2)cs1 [Example 122, N-((3R,6S)-6-((2-(5-(2-((3R,5R)-3,5-Dimethylmorpholine-4-carbonyl)-4-fluorophenoxy)pyrimidin-4-yl)-2,7-diazaspiro[3.5]nonan-7-yl)methyl)tetrahydro-2H-pyran-3-yl)-2-methylthiazole-4-sulfonamide]	< 100
C[C@@H]1COC[C@@H](C)N1C(=O)c1cc(F)ccc1Oc1cncnc1N1CC2(CCN(C[C@@H]3CC[C@@H](NS(=O)(=O)N(C)C)CO3)CC2)C1 [Example 123, {[(3R,6S)-6-{[2-(5-{2-[(3R,5R)-3,5-Dimethylmorpholine-4-carbonyl]-4-fluorophenoxy}pyrimidin-4-yl)-2,7-diazaspiro[3.5]nonan-7-yl]methyl}oxan-3-yl]sulfamoyl}dimethylamine]	< 100
C[C@@H]1COC[C@@H](C)N1C(=O)c1cc(F)ccc1Oc1cncnc1N1CC2(CCN(C[C@@H]3CC[C@@H](NS(=O)(=O)N4CCCC4)CO3)CC2)C1 [Example 124, N-((3R,6S)-6-((2-(5-(2-((3R,5R)-3,5-Dimethylmorpholine-4-carbonyl)-4-fluorophenoxy)pyrimidin-4-yl)-2,7-diazaspiro[3.5]nonan-7-yl)methyl)tetrahydro-2H-pyran-3-yl)pyrrolidine-1-sulfonamide]	< 100
CCNS(=O)(=O)N[C@@H]1CC[C@@H](CN2CCC3(CC2)CN(c2ncncc2Oc2ccc(F)cc2C(=O)N2[C@H](C)COC[C@H]2C)C3)OC1 [Example 125, {[(3R,6S)-6-{[2-(5-{2-[(3R,5R)-3,5-Dimethylmorpholine-4-carbonyl]-4-fluorophenoxy}pyrimidin-4-yl)-2,7-diazaspiro[3.5]nonan-7-yl]methyl}oxan-3-yl]sulfamoyl}(ethyl)amine]	< 100
C[C@@H]1COC[C@@H](C)N1C(=O)c1cc(F)ccc1Oc1cncnc1N1CC2(CCN(C[C@@H]3CC[C@@H](NS(=O)(=O)c4cnn(C)c4)CO3)CC2)C1 [Example 126, N-((3R,6S)-6-((2-(5-(2-((3R,5R)-3,5-Dimethylmorpholine-4-carbonyl)-4-fluorophenoxy)pyrimidin-4-yl)-2,7-diazaspiro[3.5]nonan-7-yl)methyl)tetrahydro-2H-pyran-3-yl)-1-methyl-1H-pyrazole-4-sulfonamide]	< 100
C[C@@H]1COC[C@@H](C)N1C(=O)c1cc(F)ccc1Oc1cncnc1N1CC2(CCN(C[C@@H]3CC[C@@H](NS(=O)(=O)c4ccn(C)n4)CO3)CC2)C1 [Example 127, N-((3R,6S)-6-((2-(5-(2-((3R,5R)-3,5-Dimethylmorpholine-4-carbonyl)-4-fluorophenoxy)pyrimidin-4-yl)-2,7-diazaspiro[3.5]nonan-7-yl)methyl)tetrahydro-2H-pyran-3-yl)-1-methyl-1H-pyrazole-3-sulfonamide]	< 100
CCN(C)S(=O)(=O)N[C@@H]1CC[C@@H](CN2CCC3(CC2)CN(c2ncncc2Oc2ccc(F)cc2C(=O)N2[C@H](C)COC[C@H]2C)C3)OC1 [Example 128, {[(3R,6S)-6-{[2-(5-{2-[(3R,5R)-3,5-Dimethylmorpholine-4-carbonyl]-4-fluorophenoxy}pyrimidin-4-yl)-2,7-diazaspiro[3.5]nonan-7-yl]methyl}oxan-3-yl]sulfamoyl}(ethyl)methylamine]	< 100
C[C@@H]1COC[C@@H](C)N1C(=O)c1cc(F)ccc1Oc1cncnc1N1CC2(CCN(C[C@@H]3CC[C@@H](NS(=O)(=O)N(C)C4CC4)CO3)CC2)C1 [Example 129, N-{[(3R,6S)-6-{[2-(5-{2-[(3R,5R)-3,5-Dimethylmorpholine-4-carbonyl]-4-fluorophenoxy}pyrimidin-4-yl)-2,7-diazaspiro[3.5]nonan-7-yl]methyl}oxan-3-yl]sulfamoyl}-N-methylcyclopropanamine]	< 100
C[C@@H]1COC[C@H](C)N1C(=O)c1cc(F)ccc1Oc1cncnc1N1CC2(CCN(C[C@@H]3CC[C@@H](NS(=O)(=O)c4ccccc4)CO3)CC2)C1 [Example 130, N-((3R,6S)-6-((2-(5-(2-((3S,5R)-3,5-Dimethylmorpholine-4-carbonyl)-4-fluorophenoxy)pyrimidin-4-yl)-2,7-diazaspiro[3.5]nonan-7-yl)methyl)tetrahydro-2H-pyran-3-yl)benzenesulfonamide]	< 100
Cc1nc(S(=O)(=O)N[C@@H]2CC[C@@H](CN3CCC4(CC3)CN(c3ncncc3Oc3ccc(F)cc3C(=O)N3[C@H](C)COC[C@@H]3C)C4)OC2)cs1 [Example 131, N-((3R,6S)-6-((2-(5-(2-((3S,5R)-3,5-Dimethylmorpholine-4-carbonyl)-4-fluorophenoxy)pyrimidin-4-yl)-2,7-diazaspiro[3.5]nonan-7-yl)methyl)tetrahydro-2H-pyran-3-yl)-2-methylthiazole-4-sulfonamide]	< 100
CC(C)N(C(=O)c1cc(F)ccc1Oc1cncnc1N1CC2(CCN(C[C@@H]3CC[C@@H](NS(=O)(=O)C(C)C)CO3)CC2)C1)[C@@H]1CCOC1 [Example 132, 5-Fluoro-N-isopropyl-2-((4-(7-(((2S,5R)-5-((1-methylethyl)sulfonamido)tetrahydro-2H-pyran-2-yl)methyl)-2,7-diazaspiro[3.5]nonan-2-yl)pyrimidin-5-yl)oxy)-N-((R)-tetrahydrofuran-3-yl)benzamide]	< 100
CC(C)N(C(=O)c1cc(F)ccc1Oc1cncnc1N1CC2(CCN(C[C@@H]3CC[C@@H](NS(=O)(=O)N4CCC4)CO3)CC2)C1)[C@H]1CCOC1 [Example 134, 2-((4-(7-(((2S,5R)-5-(Azetidine-1-sulfonamido)tetrahydro-2H-pyran-2-yl)methyl)-2,7-diazaspiro[3.5]nonan-2-yl)pyrimidin-5-yl)oxy)-5-fluoro-N-isopropyl-N-((S)-tetrahydrofuran-3-yl)benzamide]	< 100
CC(C)N(CCC#N)C(=O)c1cc(F)ccc1Oc1cncnc1N1CC2(CCN(C[C@@H]3CC[C@@H](NS(=O)(=O)c4ccccc4)CO3)CC2)C1 [Example 136, N-(2-Cyanoethyl)-5-fluoro-N-isopropyl-2-((4-(7-(((2S,5R)-5-(phenylsulfonamido)tetrahydro-2H-pyran-2-yl)methyl)-2,7-diazaspiro[3.5]nonan-2-yl)pyrimidin-5-yl)oxy)benzamide]	< 100
CC(C)N(C)C(=O)c1cc(F)ccc1Oc1cncnc1N1CC2(CCN(C[C@@H]3CC[C@@H](NS(=O)(=O)N(C)C)CO3)CC2)C1 [Example 137, 2-((4-(7-(((2S,5R)-5-((N,N-Dimethylsulfamoyl)amino)tetrahydro-2H-pyran-2-yl)methyl)-2,7-diazaspiro[3.5]nonan-2-yl)pyrimidin-5-yl)oxy)-5-fluoro-N-isopropyl-N-methylbenzamide]	< 100
CC(C)N(C)C(=O)c1cc(F)ccc1Oc1cncnc1N1CC2(CCN(C[C@@H]3CC[C@@H](NS(=O)(=O)N4CCC4)CO3)CC2)C1 [Example 138, 2-((4-(7-(((2S,5R)-5-(Azetidine-1-sulfonamido)tetrahydro-2H-pyran-2-yl)methyl)-2,7-diazaspiro[3.5]nonan-2-yl)pyrimidin-5-yl)oxy)-5-fluoro-N-isopropyl-N-methylbenzamide]	< 100
CCN(C(=O)c1cc(F)ccc1Oc1cncnc1N1CC2(CCN(C[C@@H]3CC[C@@H](NS(=O)(=O)N(C)CC)CO3)CC2)C1)C(C)C [Example 140, N-Ethyl-2-((4-(7-(((2S,5R)-5-((N-ethyl-N-methylsulfamoyl)amino)tetrahydro-2H-pyran-2-yl)methyl)-2,7-diazaspiro[3.5]nonan-2-yl)pyrimidin-5-yl)oxy)-5-fluoro-N-isopropylbenzamide]	< 100
CCNS(=O)(=O)N[C@@H]1CC[C@@H](CN2CCC3(CC2)CN(c2ncncc2Oc2ccc(F)cc2C(=O)N(CC)C(C)C)C3)OC1 [Example 141, N-Ethyl-2-((4-(7-(((2S,5R)-5-((N-ethylsulfamoyl)amino)tetrahydro-2H-pyran-2-yl)methyl)-2,7-diazaspiro[3.5]nonan-2-yl)pyrimidin-5-yl)oxy)-5-fluoro-N-isopropylbenzamide]	< 100
